The results in this text go back to ChEMBL document CHEMBL1201862, “PubChem BioAssay data set” (2004).

Some test systems named below: A498; ACHN; CAKI-1; COLO 205; HOP-62; HT-29; IGROV-1; MDA-MB-231; Malme-3M; NCI-H522; OVCAR-3; RPMI-8226; SN12C; SR; SW-620; T47D; UACC-62; CCRF-CEM; HCC 2998.
Common to all, as to assay: NCI tumour cell line growth inhibition, 48 h

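The compound was tested at five concentrations on cells cultured in 96-well plates, with a 48-hour exposure period. Here, GI50 denotes the concentration required for 50% inhibition of growth.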 The source made the active and inactive calls. Cut-off read from the data, not from the text of the source: active = GI50 up to about 1.1 µM and inactive = higher.

Take `O=C(O)CN1C(=O)CN=C(c2ccccn2)c2cc(Cl)ccc21`: the GI50 in the test on A498, with ACHN, with CAKI-1, in the test with COLO 205, in the test with HOP-62 and with HT-29 was > 100 µM (inactive) in each case. In addition, the GI50 in the test on IGROV-1, in the test with MDA-MB-231, with Malme-3M, in the test with NCI-H522, in the test on OVCAR-3 and with RPMI-8226 was > 100 µM (inactive) throughout. Further, the GI50 in the test on SN12C was > 100 µM (inactive); in the test with SR it was 0.547 µM (active); in the test on SW-620, > 100 µM (inactive); in the test on T47D, > 100 µM (inactive); in the test with UACC-62 it was > 100 µM (inactive).

Turning to `O=C(O)/C=C(/C(=O)O)C12CCN3CC4=CCOC5CC(=O)NC1C5C4CC32` (stereo not drawn), the GI50 with A498, in the test on ACHN, with CAKI-1, in the test with CCRF-CEM, in the test on COLO 205 and in the test on HOP-62 was > 100 µM (inactive) each time. Further, the GI50 in the test on HT-29, with IGROV-1, with MDA-MB-231, in the test with Malme-3M, in the test on NCI-H522 and in the test on OVCAR-3 was > 100 µM (inactive) each time. Moreover, the GI50 with RPMI-8226, with SN12C, with SR, with SW-620, with T47D and with UACC-62 was > 100 µM (inactive) each time.

In the case of `O=C1c2ccccc2C(=O)c2c(Nc3ccc4c5c(cccc35)C(=O)c3ccccc3-4)cccc21`, the GI50 in the test with A498, in the test with ACHN, in the test on CAKI-1, in the test on HCC 2998, with HOP-62 and with HT-29 was > 100 µM (inactive) throughout. For the same compound, the GI50 with IGROV-1 is 71.1 µM (inactive); in the test on MDA-MB-231 it was > 100 µM (inactive); with Malme-3M, > 100 µM (inactive); with NCI-H522, > 100 µM (inactive); in the test with OVCAR-3, > 100 µM (inactive); in the test on SN12C it was > 100 µM (inactive). Moreover, the GI50 in the test with SR, in the test on SW-620, with T47D and in the test on UACC-62 was > 100 µM (inactive) in each case.

Turning to `Cn1c(-c2cccs2)cc(-c2cccs2)c1-c1ccsc1`, the GI50 in the test with A498, in the test with ACHN, with CAKI-1, with CCRF-CEM, in the test on COLO 205 and in the test with HCC 2998 was > 100 µM (inactive) throughout. Besides, the GI50 in the test on HOP-62 is 53 µM (inactive); with HT-29 it was > 100 µM (inactive); in the test on MDA-MB-231, > 100 µM (inactive); in the test with OVCAR-3, 12.4 µM (inactive); in the test on RPMI-8226, > 100 µM (inactive); in the test with SN12C, > 100 µM (inactive). Besides, the GI50 in the test on SR was 48.2 µM (inactive); with SW-620, > 100 µM (inactive); in the test on T47D, > 100 µM (inactive); in the test with UACC-62 it was > 100 µM (inactive).

Take `CCCCCCCCCCCCCCCCOP(=O)(O)OP(=O)(O)OCC1OC(n2cnc3c(N)ncnc32)C(O)C1O` (stereo not drawn): the GI50 with A498 is > 100 µM (inactive); in the test with ACHN, > 100 µM (inactive); in the test on CAKI-1 it was 99.3 µM (inactive); with CCRF-CEM it was 30.5 µM (inactive); in the test with COLO 205, > 100 µM (inactive); in the test on HCC 2998, 52.1 µM (inactive). The GI50 is 30.5 µM (inactive) in the test on HOP-62; 39.9 µM (inactive) in the test with HT-29; 66.8 µM (inactive) with IGROV-1; > 100 µM (inactive) with MDA-MB-231; 43.9 µM (inactive) in the test with Malme-3M; 19.9 µM (inactive) in the test with NCI-H522. Further, the GI50 with OVCAR-3 is > 100 µM (inactive); in the test with SN12C it was 36.3 µM (inactive); in the test on SR, 31.8 µM (inactive); in the test with SW-620 it was > 100 µM (inactive); in the test with T47D, > 100 µM (inactive); with UACC-62 it was 58.7 µM (inactive).

Turning to `O=C1/C(=C/c2ccccc2)N=C(c2ccccc2)N1n1c(-c2ccccc2)nc2ccccc2c1=O`, the GI50 with A498 was 92 µM (inactive); in the test with ACHN, 89.1 µM (inactive); with CCRF-CEM, 32.8 µM (inactive); in the test with COLO 205 it was > 100 µM (inactive); in the test with HCC 2998, > 100 µM (inactive); in the test on HOP-62, > 100 µM (inactive). For the same compound, the GI50 with HT-29 was 70.5 µM (inactive); with IGROV-1, > 100 µM (inactive); with MDA-MB-231 it was > 100 µM (inactive); in the test with Malme-3M, > 100 µM (inactive); in the test with NCI-H522, 46.6 µM (inactive); with OVCAR-3, 57.9 µM (inactive). Besides, the GI50 was 28.8 µM (inactive) in the test on RPMI-8226; > 100 µM (inactive) in the test on SN12C; 31 µM (inactive) with SR; > 100 µM (inactive) with SW-620; > 100 µM (inactive) in the test on T47D; 31 µM (inactive) in the test with UACC-62.

Take `[N-]=[N+]=CC(=O)CCC(=O)N(c1ccccc1)c1ccccc1`: the GI50 with A498, with ACHN, in the test on CCRF-CEM, with HOP-62, in the test on HT-29 and in the test with IGROV-1 was > 10 µM (inactive) throughout. Also, the GI50 with MDA-MB-231, with Malme-3M, with OVCAR-3, in the test with SN12C, with SR and in the test on SW-620 was > 10 µM (inactive) each time. For the same compound, the GI50 in the test on T47D was > 10 µM (inactive).

Take `Cc1ncc([N+](=O)[O-])n1CCN=[N+]=[N-]`: the GI50 in the test with A498, in the test with ACHN, in the test with CAKI-1, in the test with COLO 205, in the test with HOP-62 and with HT-29 was > 100 µM (inactive) each time. Further, the GI50 in the test with IGROV-1, in the test on MDA-MB-231, in the test on Malme-3M, in the test on NCI-H522, in the test with OVCAR-3 and with RPMI-8226 was > 100 µM (inactive) each time. Further, the GI50 with SN12C, in the test on SR, with SW-620, in the test on T47D and in the test on UACC-62 was > 100 µM (inactive) throughout.
